Data published in the Kinase Knowledgebase extract (Sharma et al. 2016).

molecular target: MAPK14 (human) (UniProt Q16539); assay: In vitro Inhibition of VEGF Stimulated MAPK Activation
Sequence (Q16539 whole entry, looked up): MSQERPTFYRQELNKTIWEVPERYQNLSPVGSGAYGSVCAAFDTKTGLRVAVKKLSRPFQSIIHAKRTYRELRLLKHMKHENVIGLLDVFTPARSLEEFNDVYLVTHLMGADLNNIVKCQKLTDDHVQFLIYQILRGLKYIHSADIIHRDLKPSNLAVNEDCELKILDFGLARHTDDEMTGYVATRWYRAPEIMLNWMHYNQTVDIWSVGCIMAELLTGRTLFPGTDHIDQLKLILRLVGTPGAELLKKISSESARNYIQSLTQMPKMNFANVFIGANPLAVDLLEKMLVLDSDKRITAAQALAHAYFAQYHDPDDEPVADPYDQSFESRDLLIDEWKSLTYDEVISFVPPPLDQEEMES

SMILES | IC50 [nM]
COc1cc2ncnc(Oc3ccc(NC(=O)NCc4ccccn4)c(Cl)c3)c2cc1OC | > 1000
COc1cc2ncnc(Oc3ccc(NC(=O)NCc4ccc(F)cc4F)c(F)c3)c2cc1OC | 14
COc1cc2nccc(Oc3cc(C)c(NC(=O)Nc4ccccc4C)cc3C)c2cc1OC | 5.9
COc1cc2ncnc(Oc3ccc(NC(=O)Nc4ccc(F)cc4)c(C)c3)c2cc1OC | 2.3
COc1cc2nccc(Oc3ccc(NC(=O)Nc4ccc(Cl)cn4)c(C)c3C)c2cc1OC | 4
COc1ccccc1NC(=O)Nc1ccc(Oc2ccnc3cc(OC)c(OC)cc23)cc1Cl | 0.6
COc1cc2ncnc(Oc3ccc(NC(=O)Nc4ccc(Cl)cn4)c(Cl)c3)c2cc1OC | 58
COc1cc2ncnc(Oc3ccc(NC(=O)Nc4ccc(F)cc4F)cc3C)c2cc1OC | 8.8
COc1cc2ncnc(Oc3ccc(NC(=O)Nc4ccccc4C)c(F)c3)c2cc1OC | 2.7
CCC(C)NC(=O)Nc1ccc(Oc2ncnc3cc(OC)c(OC)cc23)cc1F (stereo not drawn) | 42
COc1ccccc1NC(=O)Nc1ccc(Oc2ncnc3cc(OC)c(OC)cc23)cc1C | < 1
COc1cc2ncnc(Oc3ccc(NC(=O)Nc4ccc(F)cc4F)c(C)c3)c2cc1OC | 5.3
COc1cc2nccc(Oc3cc(C)c(NC(=O)Nc4cccc(F)c4OC)cc3C)c2cc1OC | 4.9
COc1cc2nccc(Oc3ccc(NC(=O)Nc4ccc(Br)cn4)c(Cl)c3)c2cc1OC | 11
COc1cc2nccc(Oc3ccc(NC(=O)Nc4ccc(F)cc4C)c(C)c3C)c2cc1OC | 3.9
CCCCCNC(=O)Nc1ccc(Oc2ncnc3cc(OC)c(OC)cc23)cc1Cl | 4.1
COCCOc1cc2nccc(Oc3cc(C)c(NC(=O)Nc4ccccc4OC)cc3C)c2cc1OC | 5.8
CCC(C)NC(=O)Nc1ccc(Oc2ncnc3cc(OC)c(OC)cc23)cc1 (stereo not drawn) | 345
COc1ccccc1NC(=O)Nc1ccc(Oc2ncnc3cc(OC)c(OC)cc23)cc1F | < 1
C=CCNC(=O)Nc1ccc(Oc2ncnc3cc(OC)c(OC)cc23)cc1Cl | 13
COc1cc2nccc(Oc3ccc(NC(=O)Nc4ccc(Br)cn4)c(C)c3C)c2cc1OC | 4.4
COc1cc2nccc(Oc3ccc(NC(=O)Nc4ccc(F)cc4C)c(Cl)c3)c2cc1OC | 0.7

SMILES | IC50 [nM]
CCNC(=O)Nc1ccc(Oc2ncnc3cc(OC)c(OC)cc23)cc1 | 70
CCCNC(=O)Nc1ccc(Oc2ncnc3cc(OC)c(OC)cc23)c(C)c1 | 518
COc1ccccc1NC(=O)Nc1cc(C)c(Oc2ccnc3cc(OC)c(OC)cc23)cc1C | 3.8
CCC(C)NC(=O)Nc1ccc(Oc2ncnc3cc(OC)c(OC)cc23)cc1Cl (stereo not drawn) | 30
COc1cc2nccc(Oc3ccc(NC(=O)NCc4ccc(F)cc4F)c(F)c3)c2cc1OC | 1.8
CCCCNC(=O)Nc1ccc(Oc2ncnc3cc(OC)c(OC)cc23)cc1C | 53
CCCCNC(=O)Nc1ccc(Oc2ncnc3cc(OC)c(OC)cc23)cc1Cl | 71
CCCCNC(=O)Nc1ccc(Oc2ncnc3cc(OC)c(OC)cc23)c(C)c1 | 450
CCCCCNC(=O)Nc1ccc(Oc2ncnc3cc(OC)c(OC)cc23)cc1 | 21
C=CCNC(=O)Nc1ccc(Oc2ncnc3cc(OC)c(OC)cc23)cc1 | 45
CCCCNC(=O)Nc1ccc(Oc2ccnc3cc(OC)c(OC)cc23)cc1F | 5.1
CCNC(=O)Nc1ccc(Oc2ncnc3cc(OC)c(OC)cc23)cc1Cl | 8
COc1cc2nccc(Oc3cc(C)c(NC(=O)Nc4ccc(F)cc4C)cc3C)c2cc1OC | 12
COc1cc2nccc(Oc3c(Cl)cc(NC(=O)Nc4ccc(F)cc4F)cc3Cl)c2cc1OC | 4.3
COc1ccc(NC(=O)Nc2cc(C)c(Oc3ccnc4cc(OC)c(OC)cc34)cc2C)c(OC)n1 | 2
CCCNC(=O)Nc1ccc(Oc2ccnc3cc(OC)c(OC)cc23)cc1F | 2.9
COc1cc2nccc(Oc3ccc(NC(=O)Nc4ccccc4C)c(C)c3C)c2cc1OC | 2.5
COc1cc2nccc(Oc3ccc(NC(=O)Nc4ccc(C)cn4)c(Cl)c3)c2cc1OC | 8.5
COc1cc2nccc(Oc3ccc(NC(=O)Nc4cccc(F)c4OC)c(C)c3C)c2cc1OC | 5.3
COc1cc2nccc(Oc3ccc(NC(=O)Nc4ccc(Cl)cn4)c(Cl)c3)c2cc1OC | 2.9
COc1ccc(NC(=O)Nc2ccc(Oc3ccnc4cc(OC)c(OC)cc34)cc2Cl)cc1 | 0.4
COc1cc2ncnc(Oc3ccc(NC(=O)Nc4ccccc4C)cc3)c2cc1OC | 6

SMILES | IC50 [nM]
COc1cc2nccc(Oc3ccc(NC(=O)Nc4ccc(F)cc4F)c(C)c3C)c2cc1OC | 0.6
COc1ccccc1NC(=O)Nc1ccc(Oc2ncnc3cc(OC)c(OC)cc23)cc1Cl | 0.6
COCCOc1cc2nccc(Oc3ccc(NC(=O)Nc4ccc(F)cc4F)c(C)c3C)c2cc1OC | 5.1
CCCNC(=O)Nc1ccc(Oc2ncnc3cc(OC)c(OC)cc23)cc1C | 150
C#CCNC(=O)Nc1ccc(Oc2ncnc3cc(OC)c(OC)cc23)cc1 | 67
COc1cc2nccc(Oc3cc(C)c(NC(=O)Nc4ccc(F)cc4F)cc3C)c2cc1OC | 2.3
COc1cc2nccc(Oc3ccc(NC(=O)Nc4ccc(Cl)cc4C)c(C)c3C)c2cc1OC | 7.3
COc1ccc(NC(=O)Nc2ccc(Oc3ccnc4cc(OC)c(OC)cc34)c(C)c2C)cc1 | 3.3
COc1ccccc1NC(=O)Nc1cc(C)c(Oc2ccnc3cc(OCCN4CCOCC4)c(OC)cc23)cc1C | 5.9
COc1cc2nccc(Oc3ccc(NC(=O)Nc4ccc(F)cc4F)c([N+](=O)[O-])c3)c2cc1OC | 0.5
COc1cc2nccc(Oc3ccc(NC(=O)Nc4ccccn4)c(C)c3C)c2cc1OC | 3.5
COCCOc1cc2nccc(Oc3ccc(NC(=O)Nc4ccccc4OC)c(Cl)c3)c2cc1OC | 2.8
COc1cc2c(Oc3ccc(NC(=O)Nc4ccc(F)cc4F)c(F)c3)ccnc2cc1OCCN1CCOCC1 | 0.5
COc1cc2ncnc(Oc3ccc(NC(=O)Nc4ccc(F)cc4F)c(F)c3)c2cc1OC | 1.8
COc1cc2nccc(Oc3ccc(NC(=O)Nc4cccc(C)n4)c(Cl)c3)c2cc1OC | 3.4
COCCOc1cc2nccc(Oc3cc(C)c(NC(=O)Nc4ccc(F)cc4F)cc3C)c2cc1OC | 5.1
COc1cc2ncnc(Oc3ccc(NC(=O)NCc4ccc(F)cc4F)c(Cl)c3)c2cc1OC | 3.8
CCC(C)NC(=O)Nc1ccc(Oc2ccnc3cc(OC)c(OC)cc23)cc1F (stereo not drawn) | 7.8
COc1cc2ncnc(Oc3ccc(NC(=O)Nc4ccc(F)cc4)cc3)c2cc1OC | < 2
COc1cc2nccc(Oc3ccc(NC(=O)Nc4ccc(C)cn4)c(C)c3C)c2cc1OC | 4.2
CCNC(=O)Nc1ccc(Oc2ccnc3cc(OC)c(OC)cc23)cc1F | 11
COc1cc2ncnc(Oc3ccc(NC(=O)Nc4ccc(F)cc4)cc3C)c2cc1OC | 5.2

SMILES | IC50 [nM]
COc1cc2nccc(Oc3ccc(NC(=O)NCC(C)C)c(F)c3)c2cc1OC | 15
COCCOc1cc2nccc(Oc3ccc(NC(=O)Nc4ccccc4OC)c(C)c3C)c2cc1OC | 6.5
COc1cc2nccc(Oc3ccc(NC(=O)Nc4cccc(C)n4)c(C)c3C)c2cc1OC | 3.7
COc1ccccc1NC(=O)Nc1ccc(Oc2ccnc3cc(OC)c(OC)cc23)c(C)c1C | 1.7
COc1cc2ncnc(Oc3ccc(NC(=O)NCc4ccccn4)cc3)c2cc1OC | 750
CCCNC(=O)Nc1ccc(Oc2ncnc3cc(OC)c(OC)cc23)cc1Cl | 16
COc1cc2c(Oc3cc(C)c(NC(=O)Nc4ccc(F)cc4F)cc3C)ccnc2cc1OCCN1CCOCC1 | 4.4
COc1cc2nccc(Oc3ccc(NC(=O)Nc4cccc5ccccc45)c(Cl)c3)c2cc1OC | 5.4
C#CCNC(=O)Nc1ccc(Oc2ncnc3cc(OC)c(OC)cc23)cc1F | 46
CCCNC(=O)Nc1ccc(Oc2ccnc3cc(OC)c(OC)cc23)cc1[N+](=O)[O-] | 4
CCCCNC(=O)Nc1ccc(Oc2ncnc3cc(OC)c(OC)cc23)cc1F | 45
COc1ccc(NC(=O)Nc2cc(C)c(Oc3ccnc4cc(OC)c(OC)cc34)cc2C)cc1 | 4.3
COc1cc2ncnc(Oc3ccc(NC(=O)Nc4ccc(F)cc4)c(Cl)c3)c2cc1OC | 0.7
COCCOc1cc2nccc(Oc3ccc(NC(=O)Nc4ccc(F)cc4F)c(Cl)c3)c2cc1OC | 0.5
COc1cc2ncnc(Oc3ccc(NC(=O)NCc4ccc(F)cc4F)cc3)c2cc1OC | 6800
C=CCNC(=O)Nc1ccc(Oc2ccnc3cc(OC)c(OC)cc23)cc1F | 2.1
C#CCNC(=O)Nc1ccc(Oc2ccnc3cc(OC)c(OC)cc23)cc1F | 5.2
CCCNC(=O)Nc1ccc(Oc2ncnc3cc(OC)c(OC)cc23)cc1 | 42
COc1cc2nccc(Oc3ccc(NC(=O)Nc4ccccc4C)c(Cl)c3)c2cc1OC | 0.6
CCCNC(=O)Nc1ccc(Oc2ncnc3cc(OC)c(OC)cc23)cc1[N+](=O)[O-] | 10.2
COc1ccccc1NC(=O)Nc1ccc(Oc2ncnc3cc(OC)c(OC)cc23)cc1 | 1.2
CCCNC(=O)Nc1ccc(Oc2ccnc3cc(OC)c(OC)cc23)cc1Cl | 2.2
